Columns and labels:
récepteurs de type M1 = molecular target: T1, récepteurs de type M1 (Homo sapiens, UniProt P11229); test: Muscarinic M1 receptor ligand binding (technique of Watson et al.); details: in vitro; read-out: concentration inhibitrice 50 sur le ligand des récepteurs M1
T1 construct: une spécificité marquée pour les récepteurs centraux de type M1 vis-à-vis des récepteurs périphériques de type M2; from tissue; host or cells: central (brain) tissue
T1 sequence (P11229 1-460): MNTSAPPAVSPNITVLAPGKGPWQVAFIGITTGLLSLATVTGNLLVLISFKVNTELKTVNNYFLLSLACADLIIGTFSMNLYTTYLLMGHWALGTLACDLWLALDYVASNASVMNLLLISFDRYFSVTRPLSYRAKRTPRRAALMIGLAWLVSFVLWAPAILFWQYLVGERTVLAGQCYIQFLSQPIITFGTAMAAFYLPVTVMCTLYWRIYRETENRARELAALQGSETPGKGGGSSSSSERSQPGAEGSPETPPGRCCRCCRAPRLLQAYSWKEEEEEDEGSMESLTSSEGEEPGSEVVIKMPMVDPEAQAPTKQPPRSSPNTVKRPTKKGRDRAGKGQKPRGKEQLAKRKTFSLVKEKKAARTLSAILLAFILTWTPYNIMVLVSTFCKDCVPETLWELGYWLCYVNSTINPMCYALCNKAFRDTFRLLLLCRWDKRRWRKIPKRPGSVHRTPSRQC
Excerpt: In vitro, les composés (I) ont été essayés suivant la technique décrite par Watson J.D. et al. (Life Science, 1982, 31, 2019-2029) en ce qui concerne leur activité sur les récepteurs de type M1 et selon la technique décrite par Hammer R. et al. (Nature, 1980, 283, 90,92) et Hulme E.C. et al. (Molecular Pharmacology, 1978, 14, 737-750), en ce qui concerne leur activité sur les récepteurs de type M2.

[1] = tested on: rotations induites par la pirenzépine; test: Pirenzepine-induced rotations test (Worms et al., modified: oral dosing 4 h before pirenzepine); assay type: in vivo; details: 3 mg/kg body weight, 4 h before pirenzepine injection
Procedure: In vivo, les composés selon l'invention ont été essayés sur le test des rotations induites par la pirenzépine décrit par Worms P. et al. (Psychopharmacology, 1987, 93, 489-493) modifié en ce que l'administration des produits par voie orale qui a eu lieu 4 heures au lieu de 30 minutes avant l'injection de pirenzépine.

SMILES | IC50 (récepteurs de type M1) [nM] | inhibition des rotations induites par la pirenzépine [1] [%]
CCCc1cc(NCC2CCCN2CC)nnc1-c1ccccc1 (stereo not drawn) [SR 96181] | 30 | 71
Cc1cc(NCc2ccccn2)nnc1-c1ccccc1 [SR 96204 A] | – | 67
